The test system of the test is RBL-1 cell. The settings on record: glass chip treated with base then H2O (FIG. 31) and conventional patch glass capillary (FIG. 30), addition of barium chloride.

Experimental: After baking, the glass chips were stored in de-ionized H2O for many hours (ranging from less than 1 hour to over 2 days). […] The whole cell recording on a RBL-1 cell on this chip for a ramping voltage protocol, in which the voltage applied across the cell membrane linearly varied with time from −120 mV to 60 mV at a rate of 120 mV/second, is shown in FIG. 29. […] With or without baking the chips, the glass chips were first treated with HNO3 (6 M) for 4 or 5 hours, then treated with NaOH (5M) for 30-45 minutes, and were then transferred into de-ionized H2O (pH=6-7) for storage/treatment. […] A ramping voltage protocol was used for the recording in FIG. 32, in which the voltage applied across the cell membrane linearly varied with time from −120 mV to 60 mV at a rate of 120 mV/second. […] A ramping voltage protocol was used for the recording in FIG. 33, in which the voltage applied across the cell membrane linearly varied with time from −120 mV to 60 mV at a rate of 120 mV/second. • (4) Laser polishing followed by Acid treatment and then by base treatment.

As to `[Ba+2].[Cl-].[Cl-]` [barium chloride], the whole-cell current result is given as “inhibition of the whole-cell current”.

For the origin of these results see patent publication US7723029B2, “Biochips including ion transport detecting structures and methods of use” (Aviva Biosciences Corporation, priority 2002, dated 2010).
